What was measured:
L. lactis MG1363 = experiment: Agar well diffusion assay; type: cell-based, Lactococcus lactis; settings: relative to wt
Description: (§1) L. lactis strains were cultured in M17 broth supplemented with 0.5% (w/v) glucose (GM17) or GM17 agar for genetic manipulation or in minimal expression medium (MEM) for protein expression at 30°C (Rink et al., [2005]). E. faecalis, S. aureus, S. pneumonia, and L. monocytogenes were grown in GM17 at 37°C or GM17 agar at different temperatures for agar diffusion assay. M. luteus was grown in Luria-Bertani broth shaken (200 rpm) at 30°C or LB agar at 20°C for agar diffusion assay. Bacillus strains were cultured in Brain Heart Infusion (BHI) shaken (200 rpm) or BHI agar at different temperatures for agar diffusion assay.
(§2) For the agar well diffusion assay, the same cultures as in the MIC value test were used and diluted 200 times with solid media. Identical sizes of wells (7.5 mm diameter) were made and 2 μg of hinge region analogs dissolved in 20 μl 0.05% acetic acid were added. The plates were incubated at different temperatures for at least 1 day until apparent halos appeared. For activity test at low temperature, the indicators were diluted in the same way but poured into smaller plates (52 mm diameter). The plates were incubated at 4°C overnight before the peptides were added. B. sporothermodurans IC4 and B. cereus 4153 were first incubated with the peptides at 4°C for 2 weeks then moved to 30°C and incubated overnight. The diameters of the halos were measured.
(§3) The antimicrobial activity of the hinge region analogs in solid media were tested by an agar well diffusion assay. The diameters of the halos were measured and the residual activity of the analogs were estimated according to the formula of the relationship between the concentration of nisin and the sizes of halos. We made use of the fact that the size of the halo is directly related to the log of nisin concentration. Of course this is an estimate of activity of the variants because any changes in diffusion of the variant bacteriocin or growth rates of indicator bacteria during the assay could also affect the size of the halo. (Table 5 and Supplementary Figure 1). The plates were shown in supplementary data (Supplementary Figures 2–8). […] And against L. lactis at 20°C, the inhibition zone was larger than nisin. […] The M. luteus grows quite fast at room temperature and only the +2 variant retained 55% of the activity of nisin. […]
(§4) To evaluate the activity of nisin on the agar plate, an agar well diffusion assay with gradient of nisin against Lactococcus lactis ( with two plasmids) was performed ( Supplementary Figur e 1 A). The diameter of the halos were measured (Supplementary Figure 1B). […]
(§5) the concentration of nisin is in liner relationship with diameter of the halos ( Supplementary Fi g u re 1C). According to the formula (1) , the relative activity of the peptides compared to nisin can be calculated b y the formula ( 2) .
(§6) Supplementary Figure 1. Relationship between concentration of nisin and diameter of the halos. (A) Agar well diffusion assay. Gradient concentration of nisin were made and dissolved in 30µl 0.05% acetic acid. Lactococcus lactis ( with two plasmids) was cultured overnight and diluted 250 times with GM17 agar before added to the plate. The final concentration of the cells was about 2×10^6 cells/milliliter. The plate was incubated for 1 da y. Concentrations of nisin were labeled. (B) log10 of the concentrati ons and diameters of the halo. (C) A linear curve w as made betw een t he diameters of the halo and log10s of the concentration of nisin.
(§7) (1 picture or pasted object on this page, not shown here)
(§8) Last Name a uthor 1 et al. Running Title
(§9) C = concentration of nisin d° = diameter of the halo of wild t ype […]

S. aureus = experiment: Agar well diffusion assay; type: cell-based, Staphylococcus aureus; settings: 20 °C; estimated from halo diameter by nisin standard curve, relative to wt
Description: as §1, §2, §3, §4, §5
as §6, with “nisin. […]” for “nisin.”

Staphylococcus aureus = experiment: MIC in liquid culture; type: cell-based; settings: MIC value of nisin divided by that of the analog
Description: as §1
(§10) The indicator strains were cultured until OD (600 nm) reached 0.5. Before MIC value test, the culture was diluted 1000 times to make the concentration of cells around 5 × 10^5 per milliliter. The test was performed using a temperature controlled plate reader [Tecan200 (Tecan Group AG)] and 96 well plate (Greiner Bio-one). 180 μl indicator strain culture mixed with 20 μl hinge region analogs with final concentration from 0.031 μg/ml–32 μg/ml was incubated at 30°C or 37°C for 18 h. OD (600 nm) was checked every 30 min. For aerobic strains, 2 min of shaking was performed before every check. The concentration of peptide without observed growth of indicator strains was considered as the MIC value.

Bacillus cereus 4153 = experiment: MIC in liquid culture; type: cell-based; settings: MIC value of nisin divided by that of the analog
Description: as §1, §10

[1] = tested on: Bacillus cereus (L′29) 16; experiment: MIC in liquid culture; type: cell-based; settings: MIC value of nisin divided by that of the analog
Description: as §1, §10

Bacillus cereus 4147 = experiment: MIC in liquid culture; type: cell-based; settings: MIC value of nisin divided by that of the analog
Description: as §1, §10

[2] = tested on: Lactococcus lactis MG1363; experiment: MIC in liquid culture; type: cell-based; settings: MIC value of nisin divided by that of the analog
Description: as §1, §10

Micrococcus luteus = experiment: MIC in liquid culture; type: cell-based; settings: MIC value of nisin divided by that of the analog
Description: as §1, §10

[3] = tested on: Enterococcus faecalis VE14089; experiment: MIC in liquid culture; type: cell-based; settings: MIC value of nisin divided by that of the analog
Description: as §1, §10

[4] = tested on: Streptococcus pneumoniae R6; experiment: MIC in liquid culture; type: cell-based; settings: MIC value of nisin divided by that of the analog
Description: as §1, §10

Listeria monocytogenes = experiment: MIC in liquid culture; type: cell-based; settings: MIC value of nisin divided by that of the analog
Description: as §1, §10

Bacillus cereus = experiment: Agar well diffusion assay against Bacillus strains (Supplementary Figure 8); type: cell-based; settings: 30°C for 18 hours, BHI agar, 5 µg nisin or +2 analogue in 50 µl 0.05% acetic acid
Description: The antimicrobial activity of the hinge region analogs in solid media were tested by an agar well diffusion assay. The diameters of the halos were measured and the residual activity of the analogs were estimated according to the formula of the relationship between the concentration of nisin and the sizes of halos. We made use of the fact that the size of the halo is directly related to the log of nisin concentration. Of course this is an estimate of activity of the variants because any changes in diffusion of the variant bacteriocin or growth rates of indicator bacteria during the assay could also affect the size of the halo. (Table 5 and Supplementary Figure 1). The plates were shown in supplementary data (Supplementary Figures 2–8). […] And against L. lactis at 20°C, the inhibition zone was larger than nisin. […] The M. luteus grows quite fast at room temperature and only the +2 variant retained 55% of the activity of nisin.
Supplementary Figure 7.Agar well diffusion assays of hinge region analogues against Bacillus sporotherm odurans IC4 . 2 µg of peptides w ere added per w ell. The plates were incub ated at 30 ° C […]
Supplementary Figure 8.Agar well diffusion assays of hinge region analogues against 4 kinds of Bacillus strains . 5µl overnight culture was mixed with 5ml BHI agar and poured into the plate. […]

L. monocytogenes = experiment: Agar well diffusion assay; type: cell-based, Listeria monocytogenes; settings: estimated from halo diameter by nisin standard curve, relative to wt
Description: as §1, §2, §3, §4, §5, §6, §7, §8, §9

B. sporothermodurans IC4 = experiment: Agar well diffusion assay; type: cell-based, Bacillus sporothermodurans; settings: 30 °C; estimated from halo diameter by nisin standard curve, relative to wt
Description: as §1
as §2, with “B. sporothermodurans IC4 and B. cereus 4153 were first incubated with the peptides at 4°C for 2 weeks then moved to 30°C and incubated overnight.” left out
The antimicrobial activity of the hinge region analogs in solid media were tested by an agar well diffusion assay. The diameters of the halos were measured and the residual activity of the analogs were estimated according to the formula of the relationship between the concentration of nisin and the sizes of halos. […]
as §4
the concentration of nisin is in liner relationship with diameter of the halos ( Supplementary Fi g u re 1C). According to the formula (1) , the relative activity of the peptides compared to nisin can be calculated b y the formula ( 2) . […]

E. faecalis VE14089 = experiment: Agar well diffusion assay; type: cell-based, Enterococcus faecalis; settings: estimated from halo diameter by nisin standard curve, relative to wt
Description: as §1, §2, §3, §4, §5, §6, §7, §8, §9

M. luteus = experiment: Agar well diffusion assay; type: cell-based, Micrococcus luteus; settings: 20 °C; estimated from halo diameter by nisin standard curve, relative to wt
Description: as §1, §2, §3, §4, §5
as §6, with “nisin. […]” for “nisin.”

C=C(NC(=O)[C@@H](NC(=O)[C@H](Cc1c[nH]cn1)NC(=O)[C@@H](NC(=O)[C@H](CO)NC(=O)[C@@H]1CS[C@@H](C)[C@H]2NC(=O)[C@H](C)NC(=O)[C@H](NC(=O)[C@H](CCCCN)NC(=O)[C@H](CCSC)NC(=O)[C@@H](NC(=O)[C@@H](NC(=O)[C@H](CC(N)=O)NC(=O)[C@@H]3CS[C@@H](C)[C@@H](NC(=O)[C@H](CCCCN)NC(=O)[C@@H]4CS[C@@H](C)[C@@H](NC(=O)[C@@H]5CSC[C@@H](NC(=O)/C(=C/C)NC(=O)[C@@H](N)[C@@H](C)CC)C(=O)N[C@@H]([C@@H](C)CC)C(=O)NC(=C)C(=O)N[C@@H](CC(C)C)C(=O)N5)C(=O)N5CCC[C@H]5C(=O)NCC(=O)N4)C(=O)NCC(=O)N[C@@H](C)C(=O)N[C@@H](CC(C)C)C(=O)N[C@@H](CCSC)C(=O)NCC(=O)N3)[C@@H](C)CC)C(C)C)[C@H](C)SC[C@H](NC2=O)C(=O)N[C@@H](Cc2c[nH]cn2)C(=O)N1)[C@@H](C)CC)C(C)C)C(=O)N[C@@H](CCCCN)C(=O)O [+2]
Residual activity (L. lactis MG1363; 20 °C, estimated from halo diameter by nisin standard curve (halo diameter vs log of nisin concentration)): 140%
Residual activity (L. lactis MG1363; 30 °C, estimated from halo diameter by nisin standard curve): 114%
Residual activity (S. aureus): 22%
Residual activity of variants compared to nisin (Staphylococcus aureus): <6%
Residual activity of variants compared to nisin (Bacillus cereus 4153): 50%
Residual activity of variants compared to nisin [1]: 25%
Residual activity of variants compared to nisin (Bacillus cereus 4147): 50%
Residual activity of variants compared to nisin [2]: 25%
Residual activity of variants compared to nisin (Micrococcus luteus): 25%
Residual activity of variants compared to nisin [3]: 30%
Residual activity of variants compared to nisin [4]: 25%
Residual activity of variants compared to nisin (Listeria monocytogenes): 50%
plate activity compared to nisin (Bacillus cereus): either equal or higher plate activity than nisin
Residual activity (L. monocytogenes; 20 °C): 139%
Residual activity (L. monocytogenes; 30 °C): 114%
Residual activity (B. sporothermodurans IC4): 236%
Residual activity (E. faecalis VE14089; 20 °C): 144%
Residual activity (E. faecalis VE14089; 30 °C): 88%
Residual activity (E. faecalis VE14089; 37 °C): 101%
Residual activity (M. luteus): 55%

— publication PMC4310329, “The length of a lantibiotic hinge region has profound influence on antimicrobial activity and host specificity” (Frontiers in Microbiology, 2015)
